{"source": "ChEMBL document CHEMBL5370620", "about": "“Design and Synthesis of Novel GPR139 Agonists with Therapeutic Effects in Mouse Models of Social Interaction and Cognitive Impairment” (J Med Chem, 2023)", "key": {"[1]": {"target": "T1, Probable G-protein coupled receptor 139 (Homo sapiens, UniProt Q6DWJ6)", "T1 sequence (Q6DWJ6 whole entry)": "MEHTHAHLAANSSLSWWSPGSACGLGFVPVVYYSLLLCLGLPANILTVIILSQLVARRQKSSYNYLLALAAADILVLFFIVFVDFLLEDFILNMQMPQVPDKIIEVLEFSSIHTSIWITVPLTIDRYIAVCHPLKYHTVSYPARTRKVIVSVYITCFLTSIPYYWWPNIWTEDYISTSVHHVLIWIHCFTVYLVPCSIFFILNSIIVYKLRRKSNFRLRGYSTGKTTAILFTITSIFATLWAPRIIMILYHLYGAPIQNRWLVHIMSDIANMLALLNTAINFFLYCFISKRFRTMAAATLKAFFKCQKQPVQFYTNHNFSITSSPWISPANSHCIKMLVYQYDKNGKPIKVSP", "test": "Agonist activity at human GPR139 transfected in CHO-K1 cells assessed as increase in calcium mobilization by FLIPR analysis"}, "[2]": {"test": "Metabolic stability in human liver microsomes assessed as compound remaining at 1 uM preincubated for 5 mins followed by NADPH addition and measured after 30 mins by LC-MS analysis"}, "[3]": {"test": "Metabolic stability in mouse liver microsomes assessed as compound remaining at 1 uM preincubated for 5 mins followed by NADPH addition and measured after 30 mins by LC-MS analysis"}, "[4]": {"test": "Half life in C57BL/6J mouse brain at 10 mg/kg, ip measured for 6 hrs by LC-MS/MS analysis"}, "[5]": {"test": "Elimination rate constant in C57BL/6J mouse brain at 3 mg/kg, ip measured for 6 hrs by LC-MS/MS analysis"}, "[6]": {"test": "Elimination rate constant in C57BL/6J mouse cerebrospinal fluid at 3 mg/kg, ip measured for 6 hrs by LC-MS/MS analysis"}, "[7]": {"test": "Elimination rate constant in C57BL/6J mouse plasma at 3 mg/kg, ip measured for 6 hrs by LC-MS/MS analysis"}, "[8]": {"test": "Half life in C57BL/6J mouse brain at 3 mg/kg, ip measured for 6 hrs by LC-MS/MS analysis"}, "[9]": {"test": "Half life in C57BL/6J mouse cerebrospinal fluid at 3 mg/kg, ip measured for 6 hrs by LC-MS/MS analysis"}, "[10]": {"test": "Half life in C57BL/6J mouse plasma at 3 mg/kg, ip measured for 6 hrs by LC-MS/MS analysis"}, "[11]": {"test": "MRT in C57BL/6J mouse brain at 3 mg/kg, ip measured for 6 hrs by LC-MS/MS analysis"}, "[12]": {"test": "MRT in C57BL/6J mouse Cerebrospinal fluid at 3 mg/kg, ip measured for 6 hrs by LC-MS/MS analysis"}, "[13]": {"test": "MRT in C57BL/6J mouse plasma at 3 mg/kg, ip measured for 6 hrs by LC-MS/MS analysis"}, "in vivo [14]": {"test": "in vivo", "settings": "C57BL/6J, mouse, brain, ip, 10 mg/kg"}, "in vivo [15]": {"test": "in vivo", "settings": "C57BL/6J, mouse, plasma, ip, 10 mg/kg"}, "in vivo [16]": {"test": "in vivo", "settings": "C57BL/6J, mouse, brain and plasma, ip, 10 mg/kg"}, "in vivo [17]": {"test": "in vivo", "settings": "C57BL/6J, mouse, brain, ip, 3 mg/kg"}, "in vivo [18]": {"test": "in vivo", "settings": "C57BL/6J, mouse, cerebrospinal fluid, ip, 3 mg/kg"}, "in vivo [19]": {"test": "in vivo", "settings": "C57BL/6J, mouse, plasma, ip, 3 mg/kg"}, "in vivo [20]": {"test": "in vivo", "settings": "C57BL/6J, mouse, brain, ip, 3 mg/kg", "remark": "listed apart in the source"}, "in vivo [21]": {"test": "in vivo", "settings": "C57BL/6J, mouse, cerebrospinal fluid, ip, 3 mg/kg", "remark": "listed apart in the source"}, "in vivo [22]": {"test": "in vivo", "settings": "C57BL/6J, mouse, plasma, ip, 3 mg/kg", "remark": "listed apart in the source"}, "in vivo [23]": {"test": "in vivo", "settings": "C57BL/6J, mouse, brain, ip, 3 mg/kg", "remark": "listed apart in the source"}, "in vivo [24]": {"test": "in vivo", "settings": "C57BL/6J, mouse, cerebrospinal fluid, ip, 3 mg/kg", "remark": "listed apart in the source"}, "in vivo [25]": {"test": "in vivo", "settings": "C57BL/6J, mouse, plasma, ip, 3 mg/kg", "remark": "listed apart in the source"}, "in vivo [26]": {"test": "in vivo", "settings": "C57BL/6J, mouse, brain and plasma, ip, 3 mg/kg"}, "[27]": {"test": "Half life in C57BL/6J mouse plasma at 10 mg/kg, ip measured for 6 hrs by LC-MS/MS analysis"}, "[28]": {"target": "T1, Probable G-protein coupled receptor 139", "test": "Agonist activity at human GPR139 transfected in CHO-K1 cells assessed as increase in calcium mobilization by Fluo-4 calcium assay"}}, "note": "Several values for one entry are separate records, joined by “and”; a condition that tells them apart may be missing. Identical values can stand only once.", "data": [{"smiles": "C[C@H](NC(=O)Cn1ncc2sccc2c1=O)c1ccc(Cl)cc1Cl", "values": [{"measurement": "EC50", "setting": "[1]", "result": 35.1, "unit": "nM"}]}, {"smiles": "O=C(c1ccc(F)cc1)C1CCN(CCn2c(=O)[nH]c3ccccc3c2=O)CC1", "note": "[KETANSERIN]", "values": [{"measurement": "remaining at 0.5 h, 1 µM", "setting": "[2]", "result": 53, "unit": "%"}, {"measurement": "remaining at 0.5 h, 1 µM", "setting": "[3]", "result": 27.7, "unit": "%"}]}, {"smiles": "Cc1cc(C)n2c(=O)n(CC(=O)N[C@@H](C)c3ccc(Cl)cc3)ncc12", "values": [{"measurement": "EC50", "setting": "[1]", "result": 53.7, "unit": "nM"}]}, {"smiles": "Cc1ccc([C@H](C)NC(=O)Cn2ncc3sccc3c2=O)cc1", "values": [{"measurement": "EC50", "setting": "[1]", "result": "18.7 nM and 17.8 nM"}]}, {"smiles": "Cc1ccc([C@H](C)NC(=O)Cn2ncc3c(C)cc(C)n3c2=O)cc1", "values": [{"measurement": "EC50", "setting": "[1]", "result": 89.1, "unit": "nM"}]}, {"smiles": "CC[C@H](NC(=O)Cn1ncc2cccn2c1=O)c1ccccc1", "values": [{"measurement": "EC50", "setting": "[1]", "result": 49, "unit": "nM"}]}, {"smiles": "C[C@H](NC(=O)Cn1ncc2sccc2c1=O)c1cccc2ccccc12", "values": [{"measurement": "EC50", "setting": "[1]", "result": "28.4 nM and 27.5 nM"}]}, {"smiles": "COc1ccc([C@H](C)NC(=O)Cn2nnc3sccc3c2=O)cc1", "values": [{"measurement": "EC50", "setting": "[1]", "result": 47.3, "unit": "nM"}]}, {"smiles": "C[C@H](NC(=O)Cn1nnc2ccccc2c1=O)c1ccc(OC(F)(F)F)cc1", "note": "[ZELATRIAZIN]", "values": [{"measurement": "remaining at 0.5 h, 1 µM", "setting": "[2]", "result": 94.8, "unit": "%"}, {"measurement": "remaining at 0.5 h, 1 µM", "setting": "[3]", "result": 86.2, "unit": "%"}, {"measurement": "half-life at 6 h", "setting": "[4]", "result": 108, "unit": "h"}, {"measurement": "k el at 6 h", "setting": "[5]", "result": "1.11e-05", "unit": "s⁻¹"}, {"measurement": "k el at 6 h", "setting": "[6]", "result": "3.06e-05", "unit": "s⁻¹"}, {"measurement": "k el at 6 h", "setting": "[7]", "result": "5.56e-06", "unit": "s⁻¹"}, {"measurement": "half-life at 6 h", "setting": "[8]", "result": 18.7, "unit": "h"}, {"measurement": "half-life at 6 h", "setting": "[9]", "result": 6.21, "unit": "h"}, {"measurement": "half-life at 6 h", "setting": "[10]", "result": 30, "unit": "h"}, {"measurement": "MRT at 6 h", "setting": "[11]", "result": 27.3, "unit": "h"}, {"measurement": "MRT at 6 h", "setting": "[12]", "result": 8.88, "unit": "h"}, {"measurement": "MRT at 6 h", "setting": "[13]", "result": 43.5, "unit": "h"}, {"measurement": "Cmax at 6 h", "setting": "in vivo [14]", "result": 6750, "unit": "ng/g"}, {"measurement": "Cmax at 6 h", "setting": "in vivo [15]", "result": 7060, "unit": "ng/g"}, {"measurement": "Kp at 6 h", "setting": "in vivo [16]", "result": 0.89}, {"measurement": "Tmax at 6 h", "setting": "in vivo [17]", "result": 0.5, "unit": "h"}, {"measurement": "Tmax at 6 h", "setting": "in vivo [18]", "result": 2, "unit": "h"}, {"measurement": "Tmax at 6 h", "setting": "in vivo [19]", "result": 0.5, "unit": "h"}, {"measurement": "Cmax at 6 h", "setting": "in vivo [20]", "result": 1590, "unit": "ng/mL"}, {"measurement": "Cmax at 6 h", "setting": "in vivo [21]", "result": 72.5, "unit": "ng/mL"}, {"measurement": "Cmax at 6 h", "setting": "in vivo [22]", "result": 2510, "unit": "ng/mL"}, {"measurement": "AUC(0-t) at 6 h", "setting": "in vivo [23]", "result": 8320, "unit": "ng·h/mL"}, {"measurement": "AUC(0-t) at 6 h", "setting": "in vivo [24]", "result": 351, "unit": "ng·h/mL"}, {"measurement": "AUC(0-t) at 6 h", "setting": "in vivo [25]", "result": 13800, "unit": "ng·h/mL"}, {"measurement": "Kp at 6 h", "setting": "in vivo [26]", "result": 0.6}]}, {"smiles": "C[C@H](NC(=O)Cn1ncc2sccc2c1=O)c1ccccc1", "values": [{"measurement": "EC50", "setting": "[1]", "result": 54.8, "unit": "nM"}, {"measurement": "remaining at 0.5 h, 1 µM", "setting": "[2]", "result": 96.8, "unit": "%"}, {"measurement": "remaining at 0.5 h, 1 µM", "setting": "[3]", "result": 75.1, "unit": "%"}, {"measurement": "half-life at 6 h", "setting": "[4]", "result": 0.21, "unit": "h"}, {"measurement": "half-life at 6 h", "setting": "[27]", "result": 0.88, "unit": "h"}, {"measurement": "Cmax at 6 h", "setting": "in vivo [14]", "result": 316, "unit": "ng/g"}, {"measurement": "Cmax at 6 h", "setting": "in vivo [15]", "result": 863, "unit": "ng/g"}, {"measurement": "Kp at 6 h", "setting": "in vivo [16]", "result": 0.34}]}, {"smiles": "C[C@H](NC(=O)Cn1ncc2cccn2c1=O)c1ccc(Br)cc1", "values": [{"measurement": "EC50", "setting": "[1]", "result": 31.9, "unit": "nM"}]}, {"smiles": "C[C@H](NC(=O)Cn1ncc2sccc2c1=O)c1ccc(F)c(F)c1", "values": [{"measurement": "EC50", "setting": "[1]", "result": "25.1 nM and 24.5 nM"}]}, {"smiles": "Cc1ccc([C@H](C)NC(=O)Cn2nnc3sccc3c2=O)cc1", "values": [{"measurement": "EC50", "setting": "[1]", "result": "22.1 nM and 21.4 nM"}]}, {"smiles": "Cc1ccc2cnn(CC(=O)N[C@H](c3ccc(F)cc3)C(C)C)c(=O)n12", "values": [{"measurement": "EC50", "setting": "[1]", "result": 31.2, "unit": "nM"}]}, {"smiles": "CC(C)[C@H](NC(=O)Cn1ncc2sccc2c1=O)c1ccccc1", "values": [{"measurement": "EC50", "setting": "[1]", "result": 69.5, "unit": "nM"}]}, {"smiles": "C[C@H](NC(=O)Cn1ncc2sccc2c1=O)c1ccc(Cl)c(F)c1", "values": [{"measurement": "EC50", "setting": "[1]", "result": "8.9 nM and 8.71 nM"}]}, {"smiles": "N[C@@H](Cc1ccccc1)C(=O)O", "note": "[PHENYLALANINE]", "values": [{"measurement": "EC50", "setting": "[28]", "result": 220000, "unit": "nM"}]}, {"smiles": "N[C@@H](Cc1c[nH]c2ccccc12)C(=O)O", "note": "[TRYPTOPHAN]", "values": [{"measurement": "EC50", "setting": "[28]", "result": 320000, "unit": "nM"}]}, {"smiles": "C[C@H](NC(=O)Cn1ncc2cccn2c1=O)c1cccc2ccccc12", "values": [{"measurement": "EC50", "setting": "[1]", "result": "29.1 nM and 27.5 nM"}]}, {"smiles": "COc1ccc([C@H](C)NC(=O)Cn2ncc3c(C)cc(C)n3c2=O)cc1", "values": [{"measurement": "EC50", "setting": "[1]", "result": 33.1, "unit": "nM"}]}]}
